Test results reported in ChEMBL document CHEMBL1136898, “Conformational analysis of N,N-disubstituted-1,4-diazepane orexin receptor antagonists and implications for receptor binding” (Bioorg Med Chem Lett, 2009).

Experiments:
[1] = target: T1, Orexin/Hypocretin receptor type 1 (Homo sapiens, UniProt O43613); test: Binding affinity to OX1 receptor
T1 sequence (O43613 whole entry): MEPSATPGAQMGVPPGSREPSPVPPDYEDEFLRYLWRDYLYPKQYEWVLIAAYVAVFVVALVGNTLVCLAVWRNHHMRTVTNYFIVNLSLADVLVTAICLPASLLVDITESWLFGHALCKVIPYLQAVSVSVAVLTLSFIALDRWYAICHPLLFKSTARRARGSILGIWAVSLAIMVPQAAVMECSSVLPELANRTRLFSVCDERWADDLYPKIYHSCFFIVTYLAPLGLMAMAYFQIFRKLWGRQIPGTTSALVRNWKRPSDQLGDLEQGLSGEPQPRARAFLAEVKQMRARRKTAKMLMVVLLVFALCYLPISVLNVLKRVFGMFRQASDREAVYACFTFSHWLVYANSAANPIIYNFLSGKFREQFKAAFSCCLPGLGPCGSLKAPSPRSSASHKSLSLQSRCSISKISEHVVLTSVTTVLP

[2] = target: T2, Orexin receptor type 2 (Homo sapiens, UniProt O43614); test: Binding affinity to OX2 receptor
T2 sequence (O43614 whole entry): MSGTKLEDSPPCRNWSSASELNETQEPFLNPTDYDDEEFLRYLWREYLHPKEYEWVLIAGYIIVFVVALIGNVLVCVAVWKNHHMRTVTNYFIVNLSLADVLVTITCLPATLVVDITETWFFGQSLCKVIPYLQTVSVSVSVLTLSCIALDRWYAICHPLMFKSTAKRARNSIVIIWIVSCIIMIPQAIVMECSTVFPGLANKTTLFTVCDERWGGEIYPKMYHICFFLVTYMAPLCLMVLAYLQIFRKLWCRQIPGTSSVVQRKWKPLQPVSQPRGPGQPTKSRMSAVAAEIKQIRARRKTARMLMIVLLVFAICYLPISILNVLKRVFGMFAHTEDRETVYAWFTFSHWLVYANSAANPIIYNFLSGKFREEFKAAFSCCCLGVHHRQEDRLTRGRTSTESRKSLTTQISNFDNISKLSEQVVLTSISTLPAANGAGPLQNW

| Ki [1] [nM] | Ki [2] [nM] | Compound |
| --- | --- | --- |
| 930 | 240 | Cc1ccc(-n2nccn2)c(CN2CCCN(c3ncc4ccccc4n3)CC2)c1 |
| 2 | 2 | Cc1ccc(-n2nccn2)c(C(=O)N2CCCN(c3ccc4ccccc4c3)CC2)c1 |
| 9800 | 550 | O=C(C1CCCCC1)N1CCCN(c2ncc3ccccc3n2)CC1 |
| 51 | 42 | O=C1c2cc(ccc2-n2nccn2)CCCCCCc2ccc3cc(ccc3c2)N2CCCN1CC2 |
